Measurements: US12576057B2, “Antibacterial and biofilm formation-inhibiting composition containing myristoleic acid as active ingredient” (RESEARCH COOPERATION FOUNDATION OF YEUNGNAM UNIVERSITY, priority 2020, dated 2026)
Values after ≈ are worked out from the molar mass of the structure shown. Read-outs that look alike come from different tables or passages of the source.

Key:
[1] = system: C. acnes ATCC 6919; assay: Crystal violet biofilm formation assay, C. acnes ATCC 6919; assay type: cell-based, Cutibacterium acnes; conditions: for inhibition at 20 µg/mL / inhibition at 1 µg/mL: Cutibacterium acnes, ATCC6919, 96 h; for inhibition at 20 µg/mL / change in biofilm formation: 20 μg/ml; for inhibition at 20 µg/mL: 96 h culture in RCM, 96-well plate; for change in biofilm formation: 96 h culture; for inhibition at 1 µg/mL: 1 μg/ml, 96 h, 96-well polystyrene plate, read-out: inhibitory effect on biofilm formation
Experimental: 3. Crystal Violet Film Assay
Crystal violet assay was performed by the previously reported method (Lee et al., 2017b) to quantify biofilm formation.
To quantify the biofilm, planktonic growth was eliminated, the plate was washed three times with distilled water, and the biofilm attached to the well was stained with 0.1% crystal violet for 20 minutes. Thereafter, the plate was washed three times with sterile distilled water, and crystal violet was extracted using 95% ethanol, absorbance was measured at 570 nm using Multiskan EX microplate reader (Thermo Fisher Scientific, Waltham, MA), and the result was shown as an average value of at least 12 replicate wells.
Percentage for inhibition rate represents relative biofilm formation (100×biofilm formation with chemical/biofilm formation of untreated control).

[2] = system: C. acnes ATCC 6919; assay: Hydrophobicity analysis: microbial adherence to hydrocarbon (MATH); assay type: cell-based, Cutibacterium acnes; conditions: for change of cell hydrophobicity: 10 and 20 μg/ml fatty acids, 96 h
Experimental: MATH analysis (Rosenberg et al., 1980) was performed to identify the effect of fatty acids on the attachability of C. acnes to hydrocarbons (toluene) and the cell surface hydrophobicity of C. acnes.
C. acnes were grown without fatty acids for 96 hours under anaerobic conditions at 37° C.
The OD values of all treated and untreated cultures were adjusted to OD 0.5±0.05, and an equal volume of toluene was added to 3 ml of the cell suspension, followed by stirring for 60 seconds.
After stirring, incubation of an aqueous solution was performed overnight at room temperature to completely remove the trace solvent. OD600 in the aqueous solution was observed and cell surface hydrophobicity (CSH) was evaluated by hydrophobicity index (HI) using the following formula. (HI=[1−(OD600 after vortexing/OD600 before vortexing)]×100) (Mattos-Guaraldi et al., 1999). 8. Identification of Anti-Viral Effect and Cytotoxicity of Myristoleic Acid in Nematode Model

[3] = system: C. acnes ATCC 6919; assay: Quantification of extracellular polymeric substance (EPS); assay type: cell-based, Cutibacterium acnes; conditions: 10 μg/ml, 96 h culture
Experimental: 6. Quantification of Extracellular Polymeric Substance (EPS)
For EPS quantification, C. acnes treated with control and myristoleic acid was cultured at 37° C. for 96 hours. After culture, the culture was centrifuged at 8,228×g for 10 minutes, and the supernatant was separated.
The cell pellet was washed with sterile PBS to remove the culture supernatant which is free of residual cells. 15 ml of an isotonic solution (10 mM Tris/HCl, pH 8.0, 10 mM EDTA, 2.5% NaCl) was added to the cell pellet, and the mixed wells were culture at 4° C. overnight.
After overnight culture, the cell suspension was shaken to be mixed for 5 minutes, followed by centrifugation at 8,228×g for 10 minutes. The supernatant containing EPS bound with the cells was separated from the cells. Cold ethanol was added to the supernatant in a ratio of 1:3 and left at −20° C. overnight.
After collecting the precipitated EPS by centrifugation at 4° C., 18,514×g for 30 minutes, the pellet was washed with 70% ethanol and dried. The dried EPS was weighed, and inhibition of EPS production by fatty acids was calculated by the following formula (Sivasankar et al., 2016). ([Control wt−Treated wt/Control wt]×100) 7. Hydrophobicity Analysis: Microbial Adherence to Hydrocarbon (MATH)

[4] = system: C. acnes ATCC 6919; assay: Planktonic cell growth and MIC identification; assay type: cell-based, Cutibacterium acnes; conditions: for MIC: after 96 hours of culture
Experimental: 2. Measurement of Planktonic Cell Growth and MIC Identification In order to identify the effect of fatty acids on the planktonic growth of C. acnes, a culture cultured for 96 hours in a 96-well plate was re-transplanted after undergoing dilution in a ratio of 1:50 and then treated with fatty acids of different concentrations. Plates were cultured under anaerobic condition at 37° C. and maintained using an anaerobic pouch (Fisher Scientific, Pittsburgh, USA). After 96 hours of culture, cell turbidity was checked at 600 nm using Optizen 2120UV spectrophotometer ([…] Co. Ltd., Daejeon, Korea).

[5] = system: C. acnes ATCC 6919; assay: Rapid killing (time-kill) experiment; assay type: cell-based, Cutibacterium acnes; conditions: 100 μg/ml
Experimental: 4. Analysis of Rapid Killing of Acne Bacteria Using Fatty Acids To determine the killing time by fatty acids, a time-kill experiment was performed. Briefly, cultures of C. acnes ATCC 6919 grown in RCM broth (BD Difco™, Fisher Scientific, Pittsburgh, USA) at 37° C. under anaerobic conditions for 96 hours were diluted in a ratio of 1:50 with fresh RCM medium. The samples were treated with myristoleic acid (50 and 100 μg/ml) or lauric acid (50 and 100 μg/ml) and cultured at 37° C. under anaerobic conditions while stirring. At each time point, aliquots of treated cells were collected, and after performing appropriate dilutions, cells were smeared on RCM agar plates and incubated at 37° C. for 96 hours, followed by enumeration of CFUs, wherein each experiment was repeated.

[6] = system: S. aureus ATCC 6538; assay: Biofilm formation of S. aureus ATCC 6538; assay type: cell-based, Staphylococcus aureus
Description: (§1) The antibacterial and anti-biofilm activity of myristoleic acid against five Staphylococcus aureus strains was identified, including two methicillin-sensitive S. aureus strains (MSSA; ATCC 25923 and ATCC 6538), two methicillin-resistant S. aureus strains (MRSA, MW2, and ATCC 33591), and S. epidermidis strains.

[7] = system: C. acnes; conditions: after 72 hours, previous report; cited from earlier work
[8] = system: C. acnes; assay: Scanning electron microscopy of biofilm / EPS; assay type: cell-based, Cutibacterium acnes; conditions: 10 μg/ml
Experimental: 5. Scanning Electron Microscopy
Production of extracellular polymeric substance (EPS) was detected by electron microscopy (SEM) by the previously reported method (Lee et al., 2011).
Briefly, C. acnes cells were inoculated in 96-well plates under conditions with or without fatty acids, and a nylon filter (0.4×0.4 mm square) was added to each well. Biofilms were grown on the nylon filters by culturing together for 96 hours without stirring under anaerobic conditions at 37° C.
Then, the biofilm cells on the piece of nylon filter were immobilized with 2.5% glutaraldehyde and 2% formaldehyde for 24 hours and sequentially immobilized with osmium tetroxide, followed by dehydration with ethanol series (50, 70, 80, 90, 95 and 100%) and isoamyl acetate.
After critical point drying, the cells on the filter were stopper-coated with to palladium/gold, and observed under an S-4100 scanning electron microscope (Hitachi, Tokyo, Japan) at a magnification of ×1000 to ×10,000 using an acceleration voltage of 15 kV.

[9] = system: S. aureus ATCC 6538, S. aureus ATCC 25923, MRSA MW2, MRSA ATCC 33591, S. epidermidis ATCC 14990; assay: Biofilm formation of five Staphylococcus strains; assay type: cell-based, Staphylococcus aureus, Staphylococcus epidermidis
Description: as §1

[10] = system: Staphylococcus strains; assay: MIC against Staphylococcus strains; assay type: cell-based, Staphylococcus aureus
Description: as §1

[11] = system: C. elegans infected with C. acnes ATCC 6919; assay: C. elegans killing assay with C. acnes infection; assay type: in vivo; conditions: 10 μg/ml, 4 days; 20% survived without treatment
Experimental: C. elegans killing assay was performed with a slight modification of the previously reported method (Beceiro et al., 2014). Briefly, assays were performed in 96-well plates.
Young adult nematodes (20-30) [fer-15(b26);fem-1(hc17)] were transferred to each well contained in an M9 solution. The untreated control and fatty acid-treated C. acnes cells were each added to separate wells containing 20 to 30 nematodes and incubated at 25° C.
Nematodes solely exposed to E. coli OP50 at CFU of 1×10^6 cells/ml were used as a control.
Viability was identified by exposing to LED or UV LED light for 10 to 30 seconds using the iRiS™ Digital Cell Imaging System (Logos BioSystems, South Korea) by the previously reported method (Rajasekharan et al., 2018). The experiments were repeated three times.

[12] = system: uninfected C. elegans; assay: Chemical toxicity in uninfected C. elegans; assay type: in vivo; conditions: increased to 500 μg/ml for 5 days, uninfected nematodes
Experimental: The toxicity of myristoleic acid was identified in […].
[…] was treated with myristoleic acid with various doses, and survival was checked every day for 5 consecutive days.
In addition, in order to identify the chemical toxicity of myristoleic acid, uninfected nematodes were exposed to different concentrations of myristoleic acid.

[13] = Cutibacterium acnes, ATCC6919, 96 h, read-out: MIC

| Compound | inhibition at 20 µg/mL [1] [%] | change of cell hydrophobicity [2] | EPS production [3] | also measured |
| --- | --- | --- | --- | --- |
| CCCCCCCCCCCCCCCC(=O)O [palmitic acid] | > 60 |  |  |  |
| CCCCCCCCCCCCCCCCC(=O)O [heptadecanoic acid] | > 60 | a little change in hydrophobicity |  |  |
| CCCCCCCCCCCCCC(=O)O [myristic acid] | > 60 |  |  |  |
| CCCCCCCC/C=C\CCCCCCCCCCCC(=O)O [erucic acid] | > 60 |  |  |  |
| CCCCCCC(=O)O [heptanoic acid] |  |  | no significant changes | change in biofilm formation [1]: very subtle changes in biofilm formation |
| CCCCCCCCCC(=O)O [decanoic acid] | > 60 |  | no significant changes | MIC [4, 13]: 20 to 200 µg/mL (≈ 116 to 1160 µM) |
| CCCCC/C=C\C/C=C\CCCCCCCC(=O)O [linoleic acid] | > 60 | reduced cell hydrophobicity the most |  |  |
| CCCCCCCC/C=C\CCCCCCCC(=O)O [oleic acid] | > 60 |  |  |  |
| CCCCC(=O)O [valeric acid, pentanoic acid] |  |  |  | change in biofilm formation [1]: very subtle changes in biofilm formation |
| CC/C=C\C/C=C\C/C=C\CCCCCCCC(=O)O [linolenic acid] | > 60 |  |  |  |
| CCCCCCCCCCCCCCCCCC(=O)O [stearic acid] | > 60 | a little change in hydrophobicity | no significant changes |  |
| CCCCC/C=C\C/C=C\C/C=C\C/C=C\CCCC(=O)O [arachidonic acid] | > 60 |  |  |  |
| CCCCCCCCC(=O)O [nonanoic acid] | > 60 |  |  |  |
| CCCCCCCCCCC(=O)O [undecanoic acid] | > 60 |  | significant reduction in EPS production | MIC [4, 13]: 20 to 200 µg/mL (≈ 107 to 1070 µM) |
| CCCCCC/C=C\CCCCCCCC(=O)O [cis-9-hexadecenoic acid, cis-9 hexadecenoic acid] |  | a little change in hydrophobicity | no significant changes | change in biofilm formation [1]: very subtle changes in biofilm formation |
| CCCCCCCCCCCC(=O)O [lauric acid, reference compound] |  | reduced cell hydrophobicity the most | significant reduction in EPS production | inhibition at 1 µg/mL [1]: ≥ 80%; killing of C. acnes cells [5]: did not effectively kill; anti-biofilm activity [6]: weak anti-biofilm activity; MIC [7]: 60 µg/mL (≈ 300 µM) |
| CCCCCCCCCCCCCCCCCCCCCCC(=O)O [trichoic acid, tricosanoic acid] | > 60 | a little change in hydrophobicity | no significant changes |  |
| CCCC/C=C\CCCCCCCC(=O)O [myristoleic acid] |  | reduced cell hydrophobicity the most | significant reduction in EPS production | C. acnes biofilm formation ([1]; <10 μg/ml): significantly inhibited; inhibition at 1 µg/mL [1]: ≥ 80%; MIC of myristoleic acid relative to lauric acid (times lower) ([4]; 20 μg/ml vs 100 μg/ml): 5 times; MIC [4, 13]: 20 to 200 µg/mL (≈ 88.4 to 884 µM); MIC [4]: 20 µg/mL (≈ 88.4 µM); planktonic cell growth ([4]; increased to 10 μg/ml): did not reduce planktonic cell growth; C. acnes cells killed ([5]; in 1 hour): ≥ 99.999%; EPS production by SEM analysis [8]: reduction in EPS production; hydrophobicity index (cells made hydrophilic) ([2]; 10 μg/ml): > 20%; dose-dependent effect on hydrophobicity ([2]; 5, 10, 15, or 20 μg/ml): clear-cut decrease in hydrophobicity in a dose-dependent manner; anti-biofilm activity ([9]; 5 Staphylococcus strains): strong anti-biofilm activity; inhibition at 50 µg/mL ([9]; ALL5, 50 μg/ml, all 5 strains, read-out: biofilm formation inhibitory effect): > 90%; MIC [10]: 150 µg/mL (≈ 663 µM); survival of C. elegans infected with C. acnes [11]: 70%; toxicity to C. elegans [12]: did not show toxicity |
